Publication PMC6511942, “Exploitation of Antibiotic Resistance as a Novel Drug Target: Development of a β-Lactamase-Activated Antibacterial Prodrug” (Journal of Medicinal Chemistry, 2019)
Converted amounts (≈) assume the structure as drawn. “And” between values parts separate entries of the source, which are not always exact repeats. Equal entries are not always repeated. Where two headings read alike, the source gives them in different places.

Legend:
[1] = tested on: CFT073 + pSU18 (pEMP); assay: microbe, parasite or virus in culture; assay type: cell-based, E. coli
[2] = tested on: CFT073 + pSU18 + CTX-M-1 (pCTX); assay: microbe, parasite or virus in culture; assay type: cell-based, E. coli
[3] = biological target: T1, recombinant DNA gyrase (Escherichia coli, UniProt P0AES4+P0AES6); assay: Recombinant DNA gyrase supercoiling assay ± CTX-M-15; assay type: biochemical, E. coli
T1 construct: purchased Inspiralis
T1 sequence (P0AES4 whole entry, one chain of several): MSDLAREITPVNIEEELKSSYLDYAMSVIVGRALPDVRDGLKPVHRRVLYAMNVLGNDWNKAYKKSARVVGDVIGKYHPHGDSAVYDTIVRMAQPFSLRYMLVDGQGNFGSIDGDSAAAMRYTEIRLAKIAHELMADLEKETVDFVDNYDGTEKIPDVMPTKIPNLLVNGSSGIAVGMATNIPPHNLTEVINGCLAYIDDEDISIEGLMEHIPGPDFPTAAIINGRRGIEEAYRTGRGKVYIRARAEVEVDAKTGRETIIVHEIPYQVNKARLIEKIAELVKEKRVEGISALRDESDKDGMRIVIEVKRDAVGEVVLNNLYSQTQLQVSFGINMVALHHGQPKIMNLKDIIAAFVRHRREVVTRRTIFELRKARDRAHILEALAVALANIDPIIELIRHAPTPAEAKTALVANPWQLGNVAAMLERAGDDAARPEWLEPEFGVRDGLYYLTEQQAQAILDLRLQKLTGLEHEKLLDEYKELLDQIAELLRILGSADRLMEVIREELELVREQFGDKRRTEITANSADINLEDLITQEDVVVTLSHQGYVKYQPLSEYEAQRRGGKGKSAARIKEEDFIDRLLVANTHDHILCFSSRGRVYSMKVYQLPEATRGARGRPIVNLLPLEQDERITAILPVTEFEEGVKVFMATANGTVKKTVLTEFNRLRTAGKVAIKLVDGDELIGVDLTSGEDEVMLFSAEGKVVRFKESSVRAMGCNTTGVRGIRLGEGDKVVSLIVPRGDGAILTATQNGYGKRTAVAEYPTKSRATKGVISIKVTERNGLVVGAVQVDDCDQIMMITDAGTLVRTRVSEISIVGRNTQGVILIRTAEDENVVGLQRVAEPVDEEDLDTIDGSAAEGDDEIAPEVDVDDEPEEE

[4] = tested on: CFT073 E. coli cells WT; assay: MIC, E. coli CFT073 WT; assay type: cell-based; details: Escherichia coli
[5] = tested on: CFT073 pNDM (NDM-1); assay: microbe, parasite or virus in culture; assay type: cell-based, E. coli; details: Escherichia coli, read-out: MIC value pNDM
[6] = tested on: CFT073 pKPC (KPC-3); assay: microbe, parasite or virus in culture; assay type: cell-based, E. coli; details: Escherichia coli, read-out: MIC value pKPC
[7] = tested on: Ec11 (CTX-M-15, ciprofloxacin sensitive); assay: microbe, parasite or virus in culture; assay type: cell-based, E. coli
[8] = tested on: Ec12 (CTX-M-15, ciprofloxacin resistant); assay: microbe, parasite or virus in culture; assay type: cell-based, E. coli
[9] = tested on: Ec13 (CTX-M-15, ciprofloxacin resistant); assay: microbe, parasite or virus in culture; assay type: cell-based, E. coli
[10] = tested on: Ec16 (CTX-M-15, ciprofloxacin sensitive); assay type: cell-based, E. coli; details: strain EC16, ciprofloxacin sensitive
[11] = tested on: Ec17 (CTX-M-15, ciprofloxacin sensitive); assay: microbe, parasite or virus in culture; assay type: cell-based, E. coli
[12] = tested on: Ec19 (CTX-M-15, ciprofloxacin resistant); assay: microbe, parasite or virus in culture; assay type: cell-based, E. coli
[13] = tested on: E. faecalis ATCC29212 and GW01; assay: Antibacterial activity against E. faecalis strains without β-lactamase; assay type: cell-based; details: two strains that did not express β-lactamase
[14] = tested on: E. coli CFT073 pEMP; assay: Bactericidal activity (survival by CFU counts), CFT073 pEMP; assay type: cell-based; details: 78 nM, CFU counts over time
Description: Finally, the ability of prodrug 35 to kill bacteria rather than arrest growth was evaluated. […]
determined as the lowest concentration of antibiotic that inhibited visible bacterial growth.
OD595 measurements were recorded on a BioRad 1Mark Microplate Reader. Measurements were background corrected against the no-inoculum control and normalized to the no-drug […]
Determination of bactericidal activity
Stationary-phase bacteria were inoculated into 3 ml MHB containing no antibiotic, […]
subsequently incubated at 37 °C with shaking (180 r.p.m.) and bacterial viability determined […]
been shown previously to be bactericidal.
Recombinant β-lactamase assay
Each compound was incubated for 1 hour at room temperature in 100 mM NaPO4 (pH 7) ± 0.5 M NaOH. The wavelength at which the difference between un-hydrolysed and hydrolysed compound was the greatest was selected (typically 263 nm) and a compound concentration vs. absorbance standard curve was generated. Compounds, typically 250 μM in assay buffer (100 mM NaPO4 (pH 7)), were dispensed into a Corning 96-well UV transparent flat bottom plate. Recombinant Amp-C in assay buffer was added immediately before incubatio n in the microplate reader at 37 °C. UV absorbance was measured every 20 s for 1 h on a BMG LABTECH SPECTROstarNano. Kinetic parameters were determined by half -life analysis.
NMR β-lactamase hydrolysis assay […]

[15] = tested on: E. coli CFT073 pCTX-M-1; assay: Bactericidal activity (survival by CFU counts), CFT073 pCTX-M-1; assay type: cell-based; details: 78 nM

CC(=O)N[C@@H]1C(=O)N2C(C(=O)O)=C(COC(=O)c3cn(C4CC4)c4cc(N5CCNCC5)c(F)cc4c3=O)CS[C@H]12 [compound 35, (6R,7R)-7-Acetamido-3-(((1-cyclopropyl-6-fluoro-4-oxo-7-(piperazin-1-yl)-1,4-dihydroquinoline-3-carbonyl)oxy)methyl)-8-oxo-5-thia-1-azabicyclo[4.2.0]oct-2-ene-2-carboxylic Acid]
decrease in activity (MIC) compared to ciprofloxacin 31 ([1]; CFT073 WT and pEMP, absence of β-lactamase): 10 fold
MIC assay in the presence of human serum ([1]; CFT073 pEMP, 10 % normal human serum): equivalent to those obtained in the absence of serum
MIC ([1]; Escherichia coli, read-out: MIC value pEMP, CFT073 empty plasmid): 0.312 µM (≈ 0.183 µg/mL)
MIC assay in the presence of human serum ([2]; CFT073 pCTX-M-1, 10 % normal human serum): equivalent to those obtained in the absence of serum
MIC higher than ciprofloxacin 31 ([2]; CFT073 strains expressing CTX-M-1, NDM1 or KPC): 2 fold
MIC ([2]; Escherichia coli, read-out: MIC value pCTX, CFT073 pCTX): 0.04 µg/mL and 0.063 µM
inhibition of DNA gyrase ([3]; absence of CTX-M-15): not observed
reduction of DNA gyrase activity ([3]; presence of CTX-M-15, 1 μM compound): > 50%
MIC ([4]; read-out: MIC value WT, CFT073 WT): 0.312 µM (≈ 0.183 µg/mL)
MIC ([4]; CFT073 WT, read-out: MIC value WT): 0.18 µg/mL and 0.31 µM
MIC [5]: 0.04 µg/mL and 0.063 µM
MIC [6]: 0.04 µg/mL and 0.063 µM
MIC ([7]; Escherichia coli, read-out: MIC value Ec11): 0.63 µM (≈ 0.369 µg/mL)
antibacterial activity (in words) ([7]; strain EC11, ciprofloxacin sensitive): confirmed
MIC ([8]; Escherichia coli, read-out: MIC value Ec12): > 5 µM
arrest in bacterial growth (in words) ([8]; strain EC12, ciprofloxacin resistant): no arrest in bacterial growth
MIC ([9]; Escherichia coli, read-out: MIC value Ec13): > 5 µM
arrest in bacterial growth (in words) ([9]; strain EC13, ciprofloxacin resistant): no arrest in bacterial growth
antibacterial activity (in words) [10]: confirmed
MIC ([11]; Escherichia coli, read-out: MIC value Ec17): 2.5 µM (≈ 1.46 µg/mL)
antibacterial activity (in words) ([11]; strain EC17, ciprofloxacin sensitive): confirmed
MIC ([12]; Escherichia coli, read-out: MIC value Ec19): > 5 µM
arrest in bacterial growth (in words) ([12]; strain EC19, ciprofloxacin resistant): no arrest in bacterial growth
activity against E. faecalis compared to ciprofloxacin [13]: reduced activity compared to ciprofloxacin
growth of CFT073 expressing empty plasmid [14]: growth comparable to no treatment controls
killing activity in E. coli expressing CTX-M-1 ([15]; CFU counts over time): almost identical to free ciprofloxacin
greater killing of E. coli expressing CTX-M-1 compared with bacteria not expressing the enzyme ([15]; 6 h incubation, CFU counts): > 100 fold
